{"source": "patent US5616684A", "about": "“Cyclic peptides and use thereof” (priority 1991, dated 1997)", "conditions": "amide bond, 4 steps", "note": "Like-named read-outs stand apart in the source and are kept apart here.", "data": [{"compound": "CC(C)C[C@@H]1NC(=O)[C@@H](CC(C)C)NC(=O)[C@H](C)NC(=O)[C@H](CC(=O)O)NC(=O)[C@@H](CC(=O)O)NC(=O)[C@@H](Cc2c[nH]c3ccccc23)NC1=O", "note": "[cyclo[-D-Asp-Asp-Ala-D-Leu-Leu-D-Trp-]]", "values": [{"measurement": "ring closure, yield of all isomers", "setting": "from CC(C)C[C@H](NC(=O)[C@@H](CC(C)C)NC(=O)[C@H](C)NC(=O)[C@H](CC(=O)OCc1ccccc1)NC(=O)[C@@H](CC(=O)OCc1ccccc1)NC(=O)[C@@H](Cc1c[nH]c2ccccc12)NC(=O)OC(C)(C)C)C(=O)O, HONB/DCC (active ester), TEA, DMF, 5.04 mM, 16.0 h", "value": 17.8, "unit": "%"}]}, {"compound": "CC(C)C[C@@H]1NC(=O)[C@@H](CC(C)C)NC(=O)[C@H](C)NC(=O)[C@H](CCC(=O)O)NC(=O)[C@@H](CC(=O)O)NC(=O)[C@@H](Cc2c[nH]c3ccccc23)NC1=O", "note": "[cyclo[-D-Asp-Glu-Ala-D-Leu-Leu-D-Trp-]]", "values": [{"measurement": "ring closure, yield of all isomers", "setting": "from CC(C)C[C@H](NC(=O)[C@@H](CC(C)C)NC(=O)[C@H](C)NC(=O)[C@H](CCC(=O)OCc1ccccc1)NC(=O)[C@@H](CC(=O)OCc1ccccc1)NC(=O)[C@@H](Cc1c[nH]c2ccccc12)NC(=O)OC(C)(C)C)C(=O)O, HONB/DCC (active ester), TEA, DMF, 4.97 mM, 16.0 h", "value": 20.6, "unit": "%"}]}, {"compound": "CC(C)C[C@@H]1NC(=O)[C@@H](CC(C)C)NC(=O)[C@H](C)NC(=O)CNC(=O)[C@@H](CC(=O)O)NC(=O)[C@@H](Cc2c[nH]c3ccccc23)NC1=O", "note": "[cyclo[-D-Asp-Gly-Ala-D-Leu-Leu-D-Trp-]]", "values": [{"measurement": "ring closure, yield of all isomers", "setting": "from CC(C)C[C@H](NC(=O)[C@@H](CC(C)C)NC(=O)[C@H](C)NC(=O)CNC(=O)[C@@H](CC(=O)OCc1ccccc1)NC(=O)[C@@H](Cc1c[nH]c2ccccc12)NC(=O)OC(C)(C)C)C(=O)O, HONB/DCC (active ester), TEA, DMF, 5.9 mM, 16.0 h", "value": 19.2, "unit": "%"}]}, {"compound": "CC(C)C[C@@H]1NC(=O)[C@@H](CC(C)C)NC(=O)[C@H](CC(=O)O)NC(=O)[C@H](CCCNC(=O)Cc2c[nH]c3ccccc23)NC(=O)[C@@H](CC(=O)O)NC(=O)[C@@H](Cc2c[nH]c3ccccc23)NC1=O", "note": "[cyclo[-D-Asp-Orn(COCH2 -Ind)-Asp-D-Leu-Leu-D-Trp-]]", "values": [{"measurement": "ring closure, yield of all isomers", "setting": "from CC(C)C[C@H](NC(=O)[C@@H](CC(C)C)NC(=O)[C@H](CC(=O)OCc1ccccc1)NC(=O)[C@H](CCCNC(=O)Cc1c[nH]c2ccccc12)NC(=O)OC(C)(C)C)C(=O)N[C@H](Cc1c[nH]c2ccccc12)C(=O)N[C@H](CC(=O)OCc1ccccc1)C(=O)O", "value": 12.5, "unit": "%"}]}, {"compound": "CC(C)C[C@@H]1NC(=O)[C@@H](CC(C)C)NC(=O)[C@H](CC(=O)O)NC(=O)[C@H](CCCNC(=O)CCc2ccccc2)NC(=O)[C@@H](CC(=O)O)NC(=O)[C@@H](Cc2c[nH]c3ccccc23)NC1=O", "note": "[cyclo[-D-Asp-Orn(COCH2 CH2 Ph)-Asp-D-Leu-Leu-D-Trp-]]", "values": [{"measurement": "ring closure, yield of all isomers", "setting": "from CC(C)C[C@H](NC(=O)[C@@H](CC(C)C)NC(=O)[C@H](CC(=O)OCc1ccccc1)NC(=O)[C@H](CCCNC(=O)CCc1ccccc1)NC(=O)OC(C)(C)C)C(=O)N[C@H](Cc1c[nH]c2ccccc12)C(=O)N[C@H](CC(=O)OCc1ccccc1)C(=O)O, HONB/DCC (active ester), TEA, DMF, 5.05 mM, 16.0 h", "value": 40.9, "unit": "%"}]}, {"compound": "CC(C)C[C@@H]1NC(=O)[C@@H](CC(C)C)NC(=O)[C@H](CC(=O)O)NC(=O)[C@H](CCCNC(=O)Cc2ccccc2)NC(=O)[C@@H](CC(=O)O)NC(=O)[C@@H](Cc2c[nH]c3ccccc23)NC1=O", "note": "[cyclo[-D-Asp-Orn(COCH2 Ph)-Asp-D-Leu-Leu-D-Trp-]]", "values": [{"measurement": "ring closure, yield of all isomers", "setting": "from CC(C)C[C@H](NC(=O)[C@@H](CC(C)C)NC(=O)[C@H](CC(=O)OCc1ccccc1)NC(=O)[C@H](CCCNC(=O)Cc1ccccc1)NC(=O)OC(C)(C)C)C(=O)N[C@H](Cc1c[nH]c2ccccc12)C(=O)N[C@H](CC(=O)OCc1ccccc1)C(=O)O, HONB/DCC (active ester), TEA, DMF, 4.66 mM", "value": 2.9, "unit": "%"}]}, {"compound": "CC(C)C[C@@H]1NC(=O)[C@@H](CC(C)C)NC(=O)[C@H](CC(=O)O)NC(=O)[C@H](CCCNC(=O)c2ccccc2)NC(=O)[C@@H](CC(=O)O)NC(=O)[C@@H](Cc2c[nH]c3ccccc23)NC1=O", "note": "[cyclo[-D-Asp-Orn(COPh)-Asp-D-Leu-Leu-D-Trp-]]", "values": [{"measurement": "ring closure, yield of all isomers", "setting": "from CC(C)C[C@H](NC(=O)[C@@H](CC(C)C)NC(=O)[C@H](CC(=O)OCc1ccccc1)NC(=O)[C@H](CCCNC(=O)c1ccccc1)NC(=O)OC(C)(C)C)C(=O)N[C@H](Cc1c[nH]c2ccccc12)C(=O)N[C@H](CC(=O)OCc1ccccc1)C(=O)O, HONB/DCC (active ester), TEA, DMF, 5.03 mM", "value": 48.1, "unit": "%"}]}, {"compound": "CC(C)C[C@@H]1NC(=O)[C@@H](CC(C)C)NC(=O)[C@H](CC(=O)O)NC(=O)[C@@H]2CCCN2C(=O)[C@@H](CC(=O)O)NC(=O)[C@@H](Cc2c[nH]c3ccccc23)NC1=O", "note": "[cyclo[-D-Asp-Pro-Asp-D-Leu-Leu-D-Trp-]]", "values": [{"measurement": "ring closure, yield of all isomers", "setting": "from CC(C)C[C@H](NC(=O)[C@@H](CC(C)C)NC(=O)[C@H](CC(=O)OCc1ccccc1)NC(=O)[C@@H]1CCCN1C(=O)[C@@H](CC(=O)OCc1ccccc1)NC(=O)[C@@H](Cc1c[nH]c2ccccc12)NC(=O)OC(C)(C)C)C(=O)O, HONB/DCC (ONB active ester), TEA, DMF, 5.1 mM, 16.0 h", "value": 47.4, "unit": "%"}]}, {"compound": "CC(C)C[C@@H]1NC(=O)C2(CCC2)NC(=O)[C@H](CC(=O)O)NC(=O)[C@H](Cc2c[nH]c3ccccc23)NC(=O)[C@@H](CC(=O)O)NC(=O)[C@@H](Cc2c[nH]c3ccccc23)NC1=O", "note": "[cyclo[-D-Asp-Trp-Asp-Acbu-Leu-D-Trp-]]", "values": [{"measurement": "ring closure, yield of all isomers", "setting": "from CC(C)C[C@H](NC(=O)C1(NC(=O)OC(C)(C)C)CCC1)C(=O)N[C@H](Cc1c[nH]c2ccccc12)C(=O)N[C@H](CC(=O)OCc1ccccc1)C(=O)N[C@@H](Cc1c[nH]c2ccccc12)C(=O)N[C@@H](CC(=O)OCc1ccccc1)C(=O)O, HONB/DCC (active ester), TEA, DMF, 4.95 mM", "value": 10.4, "unit": "%"}]}, {"compound": "CC(C)C[C@@H]1NC(=O)[C@@H](CC(C)C)NC(=O)[C@H](CC(=O)O)NC(=O)[C@H](Cc2c[nH]c3ccccc23)NC(=O)[C@@H](CC(=O)O)NC(=O)[C@@H](Cc2c[nH]c3ccccc23)NC1=O", "note": "[cyclo[-D-Asp-Trp-Asp-D-Leu-Leu-D-Trp-]]", "values": [{"measurement": "ring closure, yield of all isomers", "setting": "from CC(C)C[C@H](NC(=O)[C@@H](CC(C)C)NC(=O)[C@H](CC(=O)OCc1ccccc1)NC(=O)[C@H](Cc1c[nH]c2ccccc12)NC(=O)[C@@H](CC(=O)OCc1ccccc1)NC(=O)[C@@H](Cc1c[nH]c2ccccc12)NC(=O)OC(C)(C)C)C(=O)O, HONB/DCC (ONB active ester), TEA, DMF, 4.97 mM, 16.0 h", "value": 52.9, "unit": "%"}]}, {"compound": "CC(C)C[C@@H]1NC(=O)[C@@H](c2cccs2)NC(=O)[C@H](CC(=O)O)NC(=O)[C@H](Cc2c[nH]c3ccccc23)NC(=O)[C@@H](CC(=O)O)NC(=O)[C@@H](Cc2c[nH]c3ccccc23)NC1=O", "note": "[cyclo[-D-Asp-Trp-Asp-D-Thg(2)-Leu-D-Trp-]]", "values": [{"measurement": "ring closure, yield of all isomers", "setting": "from CC(C)C[C@H](NC(=O)[C@H](NC(=O)OC(C)(C)C)c1cccs1)C(=O)N[C@H](Cc1c[nH]c2ccccc12)C(=O)N[C@H](CC(=O)OCc1ccccc1)C(=O)N[C@@H](Cc1c[nH]c2ccccc12)C(=O)N[C@@H](CC(=O)OCc1ccccc1)C(=O)O, HONB/DCC (active ester), TEA, DMF, 5.06 mM", "value": 4.6, "unit": "%"}]}, {"compound": "CC(C)C[C@@H]1NC(=O)[C@@H](C(C)(C)C)NC(=O)[C@H](CC(=O)O)NC(=O)[C@H](Cc2c[nH]c3ccccc23)NC(=O)[C@@H](CC(=O)O)NC(=O)[C@@H](Cc2c[nH]c3ccccc23)NC1=O", "note": "[cyclo[-D-Asp-Trp-Asp-D-tLeu-Leu-D-Trp-]]", "values": [{"measurement": "ring closure, yield of all isomers", "setting": "from CC(C)C[C@H](NC(=O)[C@H](NC(=O)OC(C)(C)C)C(C)(C)C)C(=O)N[C@H](Cc1c[nH]c2ccccc12)C(=O)N[C@H](CC(=O)OCc1ccccc1)C(=O)N[C@@H](Cc1c[nH]c2ccccc12)C(=O)N[C@@H](CC(=O)OCc1ccccc1)C(=O)O, HONB/DCC (active ester), then TEA, DMF, 5.03 mM, 16.0 h", "value": 42.8, "unit": "%"}]}, {"compound": "CC(C)C[C@@H]1NC(=O)[C@@H](CC(C)(C)C)NC(=O)[C@H](CC(=O)O)NC(=O)[C@H](Cc2c[nH]c3ccccc23)NC(=O)[C@@H](CC(=O)O)NC(=O)[C@@H](Cc2c[nH]c3ccccc23)NC1=O", "note": "[cyclo[-D-Asp-Trp-Asp-D-γMeLeu-Leu-D-Trp-]]", "values": [{"measurement": "ring closure, yield of all isomers", "setting": "from CC(C)C[C@H](NC(=O)[C@@H](CC(C)(C)C)NC(=O)OC(C)(C)C)C(=O)N[C@H](Cc1c[nH]c2ccccc12)C(=O)N[C@H](CC(=O)OCc1ccccc1)C(=O)N[C@@H](Cc1c[nH]c2ccccc12)C(=O)N[C@@H](CC(=O)OCc1ccccc1)C(=O)O, HONB/DCC (active ester), then TEA, DMF, 4.97 mM, 16.0 h", "value": 51.5, "unit": "%"}]}]}
